The source of these data is publication PMC10892288, “Early Stage Preclinical Formulation Strategies to Alter the Pharmacokinetic Profile of Two Small Molecule Therapeutics” (Pharmaceuticals, 2024).

Data set [1] is described as follows: Permeability (physiochemical properties). In kind it is in vitro ADME.
A short description of data set [2]: Mouse IV infusion of G7883 by iPRECIO pump. In kind it is in vivo, female C57BL-6 mice. An excerpt:
This is often a concern for molecules in early drug discovery stages. Various formulation and delivery strategies have been devised to modify the systemic PK profiles of drug molecules, encompassing nanoparticles, microparticles, lipid and polymer conjugation, implanted infusion pump device technologies, and subcutaneous depots. Here, we examined two strategies aimed at maintaining the drug concentration at a designed target concentration for the maximum duration potentially needed for proof of concept studies. The initial approach involved using an implantable device, the iPRECIO pump that allows for a controlled and sustained infusion, as opposed to a typical bolus IV injection. The infusion pump strategies can be a promising tool to achieve the desired delivery profile of a compound, given the solubility requirements based on the intended target release and PK profile. […]
All plasma and cell media concentrations of G7883 and G6893 were determined using liquid chromatography–tandem mass spectrometry after protein precipitation with acetonitrile and injection of the supernatant onto the column (Waters ACQUITY UPLC BEH C18 1.7 μm, 2.1 × 50 mm for G7883 and G6893). […] The lower limit of quantitation of the assay was 5.1 ng/mL, and the dilution quality control concentration was set at 10 ng/mL with acceptance criteria for accuracy and precision of 25%.

Data set [3] in a line: Water solubility (physiochemical properties). In kind it is physicochemical. As to conditions: water.

In brackets after ≈: the same amount, converted by molar mass.

One may read the Papp as a coefficient for how fast a substance crosses the barrier. The low end stands for slow passage, the high end for fast passage. The term solubility denotes the dissolved amount per volume that the medium holds. A higher solubility goes with a readily soluble substance. For the compound `Cc1nccnc1-c1nn2c(=O)cc(-c3ccc(C4CCCCC4)cc3)[nH]c2c1C(=O)N1CC(CF)C1` [G7883, 5-(4-cyclohexylphenyl)-3-[3-(fluoromethyl)azetidine-1-carbonyl]-2-(3-methylpyrazin-2-yl)-4H-pyrazolo[1,5-a]pyrimidin-7-one], the “permeability (in words)” value in data set [1] was “moderate permeability”. In data set [1] (not told), this compound had an apparent permeability coefficient (Papp) of 5.79 ×10⁻⁶ cm/s. Besides, the “plasma concentration relative to target IC50” value in data set [2] (3.3 mg/mL in 20% DMSO, 80% PEG400, 1.54 mg/h.kg, over 176 h, mouse) was “plasma concentrations remained below the target IC50”. Also, the “body weight over time” value in data set [2] (20% DMSO, 80% PEG400, mouse) was “prevention of body weight loss over time”. In addition, the solubility in data set [3] was found to be 85 µg/mL (≈ 170 µM).
